Paper PMC8772772, “Enantioselective Synthesis and Pharmacological Evaluation of Aza-CGP37157–Lipoic Acid Hybrids for the Treatment of Alzheimer’s Disease” (Antioxidants, 2022)
Where two headings read alike, the source gives them in different places.

Tests used:
NRF2 [1] = conditions: AREc32 cells, cited from earlier work; for CD (concentration required to double the specific luciferase activity): 24 h, Table S1, ref [3] of the supplement; for CD (concentration to double luciferase expression): previous results
[2] = set-up: method as in PMID 31693218; conditions: cited from earlier work; for DPPH Scavenging at 100 µM, %: compound 100 µM; for DPPH Scavenging at 1mM, %: compound 1 mM
[3] = Cytotoxicity in SH-SY5Y cell line (MTT); type: cell-based; conditions: human; SH-SY5Y, 10, 30 and 100 μM, 24 h, MTT; read-out: CC50
Experimental: SH-SY5Y human neuroblastoma cells were seeded in 96-well clear multi-well plates (6 × 10^4 cells/well). Cells were treated with increasing concentrations of compounds (10, 30 and 100 μM) for 24 h. Thereafter, viability was assessed by the MTT method. Cytotoxic concentration to observe 50% mortality (CC50) values for compounds were interpolated from dose–response curves represented as percentage of cell death vs. concentration of compound, fitted by non-linear regression and data interpolated to value 50.
(§1) The tetrazolium ring of MTT can be cleaved by active dehydrogenases to produce a formazan precipitate. At the end of the experiments, MTT (SigmaAldrich, M2003) stock solution was added to each well to achieve a final concentration of 0.5 mg/mL. Cells were incubated for 2 h. Thereafter, culture media was removed, and DMSO was added to each well to dissolve the formazan precipitate. Finally, absorbance was measured in a microplate reader (SPECTROstar nano, BMG Labtech) at 570 nm. Absorbance obtained in basal conditions was considered as 100% cell viability.
In order to evaluate the potential pharmacological profile of new compounds, we first tested the potential neurotoxicity in the neuroblastoma SHSY5Y cell line. Toxicity was evaluated at increasing concentrations (10, 30 and 100 μM), and toxicity was measured as MTT reduction capability. CC50 values were calculated by non-linear regression of curves % survival vs. concentration (Supplementary Materials Figure S2). CGP37157 and previously studied racemic derivatives rac-3a and (rac,R)-3b were included as reference compounds. As previously described, LA is a non-neurotoxic compound at the concentrations texted.

[4] = tested on: SH-SY5Y neuroblastoma cells; assay: Neuroprotection against rotenone/oligomycin A oxidative stress in SH-SY5Y cells (MTT); type: cell-based, human; conditions: compound 1 μM 24 h, then compound + R/O (30/10 μM) 24 h; for % Survival: basal = 100, R/O alone 53.4
Experimental: Human neuroblastoma SH-SY5Y cells were plated in 96-well clear multi-well plates (6 × 10^4 cells/well). The potential neuroprotective activity of compounds against OS was evaluated using the rotenone (30 μM) (SigmaAldrich, R8875) and oligomycin A (10 μM) (SigmaAldrich, 75351) (R/O) toxic mixture. Neuroprotection activity against Tau hyperphosphorylation was evaluated by using the okadaic acid (20 nM) model. Cells were pre-incubated with each compound (1 µM) for 24 h, and then treatments were removed and cells were incubated with compounds (1 µM) in the presence the corresponding toxic for additional 24 h. At the end of the experiments, viability was determined by the MTT method. Data were normalized from cell death induced by the toxic stimuli (considered as 100% cell death). Then, the protection percentages were calculated by subtracting from the death induced by toxic stimuli, the death in the presence of the compound.
as §1
Thus, we selected a pre-incubation protocol to evaluate their potential neuroprotective capacity based on the NRF2-induction activity and direct antioxidant effect. Compound pre-incubation would induce the expression of antioxidant enzymes regulated by the phase II antioxidant response, thus promoting cells’ survival. The co-incubation period would also evaluate their capacity to trap free radicals produced by intoxicated mitochondria. SH-SY5Y neuroblastoma cells were treated with compounds (1 µM) during 24 h, and then cells were co-incubated with the corresponding compound at the same concentration and the R/O combination (30/10 µM) for additional 24 h. Melatonin, a well-known antioxidant natural neurohormone, was included as a positive control (1 µM). Previously reported racemic derivatives (rac-3a and (rac,R)-3b) and their precursors ((±)-6, R-6 and S-6) were included for comparative purposes at the same concentration.

primary glial cultures = tested on: primary glial cultures; set-up: method as in PMID 31693218; conditions: primary glial cultures stimulated by LPS; cited from earlier work
BV2 microglial cells = assay: Nitrite production reduction in LPS-stimulated BV2 microglial cells (Griess); type: cell-based, mouse; conditions: 24 h pretreatment 0.3, 3, 10, 30 μM, then compound + LPS 100 ng/mL 18 h, Griess
Experimental: BV2 microglial cells were seeded at 2 × 10^4 cells/well and treated with compounds at increasing concentrations during 24 h in complete culture media. Then, treatments were removed, and BV2 cells were co-incubated with compounds and LPS (100 ng/mL) (O127:B8, SigmaAldrich, L3129) for additional 18 h in culture media supplemented with 1% FBS. Each plate included non-treated cells as basal nitrite production. Thereafter, nitrite production was determined by using the modified Griess assay. In brief, samples (150 μL) were mixed with DAPSONE (75 μL) (SigmaAldrich, A74807) and NEDA (75 μL) (SigmaAldrich, 33461), and the mixture was incubated at room temperature for 5 min. Light absorption was measured at 550 nm in a microplate reader (SPECTROstar nano, BMG Labtech). Basal nitrite production was referred to as 100% of nitrite production, and all data were normalized to the basal condition. Concentration needed to reduce nitrite production to 50% was calculated from graphical representation of percentage of nitrite production vs. compound concentration, and data were fitted by non-linear regression and interpolated to 50%.
Chronic neuroinflammation is considered a key pathological event in the early stages of AD development. Among immune cells present at CNS, microglia is related to host defense and tissue repair. Nonetheless, chronic neuroinflammation induced by an adverse environment of protein aggregates and exacerbated OS induces a neurotoxic activity of microglia that, finally, leads to neuronal death. […] To this end, we selected the BV2 microglial cell model stimulated by lipopolysaccharide (LPS), a TLR4 agonist that activates the pro-inflammatory response. CGP37157, R- and S-LA; analogue compounds rac-3a and (rac,R)-3b; and precursor derivatives 6 were included with comparative and reference purposes. Microglial BV2 cells were treated with increasing concentrations of the corresponding compound (0.3, 3, 10 and 30 µM) for 24 h following a pre-incubation protocol. Thereafter, treatments were exchanged by a combination of the corresponding compound at desired concentration and LPS (100 ng/mL) during 18 h. At the end of this period, nitrite production was evaluated by the Griess method as an indirect measurement of iNOS enzyme expression and BV2 activation.

[5] = tested on: mitochondrial lipoamide dehydrogenase; set-up: method as in PMID 8573188; conditions: cited from earlier work
NRF2 [6] = assay: NRF2 induction, luciferase expression in AREc32 cell line; type: cell-based; conditions: AREc32 cells, 0.3, 3, 10 and 30 μM (LA: 0.1–0.6 mM), 24 h; mean ± SEM
Experimental: AREc32 cell line was kindly shared by Professor Roland Wolf (University of Dundee, UK). AREc32 cells were maintained in DMEM/glutamax/high glucose (Gibco, 61965-06, Madrid, Spain), supplemented with 1% penicillin–streptomycin (10,000 units) (SigmaAldrich, P4333, Madrid, Spain), geneticin (0.8 mg/mL) (Gibco, 11811-031) and 10% FBS (Gibco, 10270106), at 37 °C in a 5% CO2 air atmosphere. Cells were used from passage 4 to 18, and mycoplasma contamination was tested every 4 weeks. AREc32 cells were seeded in 96-well white plates (2 × 10^4 cells/well) for 24 h. Thereafter, cells were treated with each compound (0.3, 3, 10 and 30 µM) in duplicate for 24 h. Non-treated cells were included as basal luciferase expression and tert-butylhydroquinone (TBHQ, 10 μM) as positive control in each plate. Luciferase expression was evaluated by using the Luciferase Assay System (Promega, E1483, Madrid, Spain) by luminescence in an Orion II microplate luminometer (Berthold, Germany). Luciferase activity increase was normalized to basal conditions considered as 1. CD values (concentration required to double the luciferase activity) were calculated from dose–response curves of luciferase fold induction vs. compound concentration, fitted by non-linear regression and data interpolated to value 2.
To evaluate the influence of both stereogenic centers in the NRF2 induction capacity of aza-CGP37157-LA hybrids, we used the AREc32 cell line model by analyzing luciferase expression upon treatment with NRF2 inducers. AREc32 cells were exposed to increasing concentrations of tested compounds 7a–d (0.3, […], 10 and 30 μM) during 24 h; thereafter, luciferase expression was evaluated by luminescent assay to calculate the corresponding CD value (concentration to double luciferase expression). […] TBHQ was included as a positive control, and CGP37157, S- and R-LA, rac-3a and (rac,R)-3b and precursors derivatives (R-6 and S-6) were included for comparative purposes. […] Once R-LA is reduced, it might activate the phase II antioxidant response by acting as pro-oxidant over key Cys residues at KEAP1 to generate the corresponding lipoyl-cystinyl disulphide.

SH-SY5Y cell line = tested on: SH-SY5Y cell line; set-up: method as in PMID 21989390; conditions: at the concentrations tested; cited from earlier work

IC50 (BV2 microglial cells) [µM] | Structure (SMILES) | CD (concentration required to double the specific luciferase activity) (NRF2 [1]) [µM] | CD (concentration to double luciferase expression) (NRF2 [1]) [µM] | DPPH Scavenging at 100 µM, % [2] | DPPH Scavenging at 1mM, % [2] | CC50 at 24 h [3] [µM] | % Protection [4] [%] | % Survival [4] [%] | reduction of nitrite production (primary glial cultures) | rate of conversion to dihydrolipoic acid relative to S-LA [5] [times] | CD (concentration required to double the specific luciferase activity) (NRF2 [6]) [µM] | neurotoxicity (SH-SY5Y cell line)
 | O=C1CN(CCOC(=O)CCCC[C@@H]2CCSS2)C(c2ccccc2Cl)c2cc(Cl)ccc2N1 (mixture of isomers) [(rac,R)-3b] | 9.8 ± 1.6 | 9.8 ± 1.6 | 8.7 ± 5.1 [19] % | 30.7 ± 3.9 [19] % | 76.2 ± 4.8 | 59.3 | 72.9 ± 3.5 | not active |  |  | 
 | O=C1CN(CCOC(=O)CCCCC2CCSS2)C(c2ccccc2Cl)c2cc(Cl)ccc2N1 (racemic) [rac-3a] | 14.8 ± 1.6 | 14.8 ± 1.6 | 15.1 ± 3.4 [19] % | 37.4 ± 3.8 [19] % | 97.1 ± 2.3 | 52.1 | 69.0 ± 5.6 | able to reduce nitrite production |  |  | 
> 30 | O=C(O)CCCC[C@@H]1CCSS1 [(R) -Lipoic acid, (R)-Lipoic acid, reference compound] |  |  |  |  |  |  |  |  | 28 | > 600 | 
 | O=C(O)CCCCC1CCSS1 (centres unmarked) [LA, lipoic acid] |  |  |  |  |  |  |  |  |  |  | non-neurotoxic
